Source: patent US11382914B2, “Usage and dosage of therapeutic agents for endometriosis” (KISSEI PHARMACEUTICAL CO., LTD., priority 2016, dated 2022)
Read-outs that look alike come from different tables or passages of the source.

Experiments:
[1] = system: patients with endometriosis; details: for Changes in average NRS for pelvic pain (regardless of menstruation) between the pre-treatment period and the time of final assessment during the treatment period: oral once a day for 8 weeks
Procedure: Clinical Trial 2 in Patients with Endometriosis (Randomized Non Blind Parallel-Group Comparison Study)
To 21 patients with endometriosis, Compound 2 was administered orally at a dose of 75 mg (11 patients) or 150 mg (10 patients) after breakfast once a day for 8 weeks. These groups are hereinafter referred to as a 75-mg administration group and a 150-mg administration group. The administration was started from the second to fifth days of menstruation.

[2] = system: patients with endometriosis; details: for Changes in average NRS for pelvic pain (regardless of menstruation) between the pre-treatment period and the time of the final assessment during treatment: oral once a day for 12 weeks
Procedure: Clinical Trial 1 in Patients with Endometriosis (Double-Blind Parallel-Group Comparison Study)
To 107 patients with endometriosis, Compound 2 at a dose of 50 mg (29 patients), 100 mg (26 patients) or 200 mg (28 patients) or a placebo (24 patients) was orally administered after breakfast once a day for 12 weeks. These groups are hereinafter referred to as a 50-mg administration group, a 100-mg administration group, a 200-mg administration group, and a placebo group. The administration was started from the second to fifth days of menstruation.
As evaluation scales for safety, for example, the occurrence of an adverse event, the occurrence of a side effect, and vaginal bleeding were evaluated.

[3] = long-term study; cited from earlier work

Which “Changes in average NRS for pelvic pain (regardless of menstruation) between the pre-treatment period and the time of final assessment during the treatment period” value ([1]; 75-mg administration group) does the source give for “3-[2-fluoro-5-(2,3-difluoro-6-methoxybenzyloxy)-4-methoxyphenyl]-2,4-dioxo-1,2,3,4-tetrahydrothieno[3,4-d]pyrimidine-5-carboxylic acid choline salt [Compound 2]” here?
The value was −0.94.

What about the “Median E2 concentrations during treatment” value ([1]; 75-mg administration group, week 4) of the same compound?
The value was 35 pg/mL.

What about the “Median E2 concentrations during treatment” value ([1]; 75-mg administration group, week 8) of the same compound?
Its value is 24 pg/mL.

And the “Changes in average NRS for pelvic pain (regardless of menstruation) between the pre-treatment period and the time of final assessment during the treatment period” value ([1]; 150-mg administration group)?
Its value is −1.68.

What about the “Median E2 concentrations during treatment” value ([1]; 150-mg administration group, week 4) of the same compound?
The value was 10 pg/mL.

And the “Median E2 concentrations during treatment” value ([1]; 150-mg administration group, week 8)?
Its value is 10 pg/mL.

What about the “Improvement of average NRS for pelvic pain” value ([1]; all groups (75, 150 mg)) of the same compound?
The value was “tendency of improvement”.

And the “Percentage of patients who had menstruation during treatment (Yes)” value (shortened to “Percentage … (Yes)”) ([2]; 50 mg)?
Its value is 72.4%.

What about the “Percentage of patients who had no menstruation during treatment (No)” value (“Percentage … (No)” below) ([2]; 50 mg) of the same compound?
The value was 27.6%.

And the “Percentage … (Yes)” value ([2]; 100 mg)?
The value was 26.9%.

And the “Percentage … (No)” value ([2]; 100 mg)?
The value was 73.1%.

And the “Percentage … (Yes)” value ([2]; 200 mg)?
Its value is 3.6%.

What about the “Percentage … (No)” value ([2]; 200 mg) of the same compound?
Its value is 96.4%.

What about the “Number of cases where side effects associated with hypoestrogenism (hot flashes, headache, dizziness, hyperhidrosis) were developed” value (shortened to “Number”) ([2]; 50-mg administration group (29 patients)) of the same compound?
The value was 9.

And the “Changes in average NRS for pelvic pain (regardless of menstruation) between the pre-treatment period and the time of the final assessment during treatment” value ([2]; 50-mg administration group)?
Its value is −1.13.

And the “E2 concentrations during treatment” value ([2]; 100-mg administration group)?
The value was “lower than 20 pg/mL”.

And the “Number” value ([2]; 100-mg administration group (26 patients))?
Its value is 12.

And the “Changes in average NRS for pelvic pain (regardless of menstruation) between the pre-treatment period and the time of the final assessment during treatment” value ([2]; 100-mg administration group)?
Its value is −1.27.

And the “E2 concentrations during treatment” value ([2]; 200-mg administration group)?
The value was “lower than 20 pg/mL”.

And the “Number” value ([2]; 200-mg administration group (28 patients))?
Its value is 28.

And the “Changes in average NRS for pelvic pain (regardless of menstruation) between the pre-treatment period and the time of the final assessment during treatment” value ([2]; 200-mg administration group)?
Its value is −1.33.

What about the “E2 secretion during treatment” value ([2]; all groups (50, 100, 200 mg)) of the same compound?
Its value is “Suppression of E2 secretion was observed”.

What about the “Improvement of average NRS for pelvic pain as compared to the placebo group” value ([2]; all groups (50, 100, 200 mg) vs placebo) of the same compound?
The value was “Significant improvements”.

What about the “Temporal pain, observations by others, use rate of an analgesic agent, sizes of an ovarian chocolate cyst and the uterus, as compared to the placebo group” value ([2]; groups administered 50, 100, 200 mg vs placebo) of the same compound?
The value was “improved”.

What about the “Occurrence of side effects associated with hypoestrogenism” value ([2]; groups with E2 concentration of 20 pg/mL and/or more during treatment) of the same compound?
The value was 28.2%.

And the “Occurrence of side effects associated with hypoestrogenism” value ([2]; groups with E2 concentration of less than 20 pg/mL during treatment)?
The value was 54.8%.

For `C[C@]12CCC3=C4CCC(=O)C=C4CC[C@H]3[C@@H]1CC[C@@]2(O)CC#N` [Dienogest, dienogest], which “Incidence of atypical genital bleeding as a side effect” value [3] is on record?
Its value is 71.9%.
